“Also recorded” adds a separate entry of the source.
T1: ST3O (Sus scrofa, UniProt Q02745)
T1 sequence (Q02745 28-343 limits assumed): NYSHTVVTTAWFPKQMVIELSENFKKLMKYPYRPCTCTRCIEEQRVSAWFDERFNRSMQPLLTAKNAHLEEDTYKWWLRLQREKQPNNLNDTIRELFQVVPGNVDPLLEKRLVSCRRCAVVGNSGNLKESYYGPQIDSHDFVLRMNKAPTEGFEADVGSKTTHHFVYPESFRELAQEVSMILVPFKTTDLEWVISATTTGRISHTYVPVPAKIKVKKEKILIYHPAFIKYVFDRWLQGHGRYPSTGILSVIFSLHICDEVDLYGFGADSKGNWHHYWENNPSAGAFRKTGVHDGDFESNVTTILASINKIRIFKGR

T2: ST3N (Rattus norvegicus, UniProt Q02734)
T2 sequence (Q02734 29-374 limits assumed): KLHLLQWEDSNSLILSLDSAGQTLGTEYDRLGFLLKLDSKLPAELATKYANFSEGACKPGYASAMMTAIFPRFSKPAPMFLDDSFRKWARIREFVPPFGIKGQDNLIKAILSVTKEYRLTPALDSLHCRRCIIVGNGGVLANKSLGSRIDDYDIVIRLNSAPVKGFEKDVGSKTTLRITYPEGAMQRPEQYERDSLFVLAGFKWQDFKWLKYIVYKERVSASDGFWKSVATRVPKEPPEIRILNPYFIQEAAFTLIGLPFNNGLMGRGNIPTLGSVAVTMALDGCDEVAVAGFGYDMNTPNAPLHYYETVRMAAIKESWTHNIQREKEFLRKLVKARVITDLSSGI

T3: rat ST3N (Rattus norvegicus, UniProt Q02734)
T3 sequence (Q02734 29-374 limits assumed): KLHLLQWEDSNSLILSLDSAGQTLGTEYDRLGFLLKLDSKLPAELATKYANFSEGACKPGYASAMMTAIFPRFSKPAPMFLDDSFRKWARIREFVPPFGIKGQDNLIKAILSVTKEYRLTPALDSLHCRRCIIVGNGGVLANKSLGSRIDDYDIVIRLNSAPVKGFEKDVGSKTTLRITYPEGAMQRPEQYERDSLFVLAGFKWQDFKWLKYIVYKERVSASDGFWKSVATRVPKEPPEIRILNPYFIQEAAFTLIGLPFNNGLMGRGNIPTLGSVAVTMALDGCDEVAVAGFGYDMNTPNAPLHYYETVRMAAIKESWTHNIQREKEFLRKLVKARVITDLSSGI

T4: ST3 (Homo sapiens, UniProt Q11206)
T4 construct: A truncated form of ST3, lacking the first 39 amino acids of the long-form open reading frame; made in house; host or cells: COS-1 (concentrated culture medium)
T4 sequence (Q11206 41-333): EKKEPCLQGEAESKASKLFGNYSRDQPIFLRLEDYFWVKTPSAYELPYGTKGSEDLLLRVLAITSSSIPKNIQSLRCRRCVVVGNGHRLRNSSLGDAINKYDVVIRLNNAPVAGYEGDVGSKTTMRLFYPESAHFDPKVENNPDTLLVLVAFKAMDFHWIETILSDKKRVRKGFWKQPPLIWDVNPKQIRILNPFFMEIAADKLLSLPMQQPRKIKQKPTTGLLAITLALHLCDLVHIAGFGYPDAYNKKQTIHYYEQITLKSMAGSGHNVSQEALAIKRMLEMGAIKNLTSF


Legend:
[1] = molecular target: T1, ST3O; test: Acceptor specificity of ST3O (Table 4); conditions: for Relative rate (%) ST30: acceptor 0.2 mM
[2] = molecular target: T2, ST3N; test: Acceptor specificity of ST3N (Table 4)
[3] = molecular target: T3, rat ST3N; test: Acceptor specificity of soluble rat ST3N fusion protein (Table 3); conditions: acceptor 0.2 mM; relative to LNT
[4] = molecular target: T4, ST3; test: Acceptor specificity of soluble ST3 (AZ3, concentrated COS-1 media); type: biochemical; conditions: for Relative rate (%) ST3: acceptor 0.2 mM
[5] = system: acceptor substrate antifreeze glycoprotein (AFGP); test: Sialyltransferase activity of purified porcine liver α2,3-0 sialyltransferase; type: biochemical; conditions: after third CDP-hexanolamine agarose column
Description: FIG. 4 Purification of the α2,3-0 sialyltransferase on CDP-hexanolamine agarose (column III, CDP elution). […] In columns A and B elution of enzyme activity correlated predominantly with 48 kDa and a 45 kDa protein species, respectively (see inset, SDS-PAGE). These two species, form A and form B of the α2,3 sialyltransferase, had specific activities of 8-10 units/mg protein. The 48 kDA and 45 kDA species were blotted to a PVDF membrane and analyzed by NH2 -terminal sequencing.
The enzyme was purified from a porcine liver Triton X-100 extract by affinity chromatography on three successive columns of CDP-hexanolamineagarose. The elution profile from the first and third purification steps are shown in FIG. 3 and FIG. 4, respectively. […] These two peaks were separated by combining the indicated fractions into pools A and B, these two pools were subsequently found to be enriched in two different molecular weight forms of the α2,3-0 sialyltransferase.
The membranes were extracted three times with buffer (Conradt, H. S. et al., in Sialic Acids 1988 Proceedings of the Japanese-German Symposium on Sialic Acids (Schauer and Yamakawa, eds.) pp. 104-105, Verlag Wissenschaft and Bildung, Kiel [1988]) and the extract was passed over a 1.5 l CDP-hexanolamine agarose column (column 1) (16 umol/ml). After washing the column with 3 L buffer B, the column was eluted with a linear gradient of 0.05 to 1.0 M KCL (2.5 l×2.5 l) in buffer B. Fractions containing α2,3 sialyltransferase were combined into two pools A and B, representing the main part and the trailing end of the peak, respectively (see FIG. 3). The pools were dialysed against buffer B and subjected to another round of affinity chromatography on CDP-hexanolamine agarose (columns IIA and IIB). A 150 ml column was used for pool A and a 30 ml column was used for pool B; two preparations from column I (from total of 4 kg liver) were loaded on the same column in step II. […]

Molecule	Relative rate (%) ST30 [1] [%]	Relative rate (%) ST3N ([2]; acceptor 0.2 mM) [%]	acceptor substrate for ST3 enzyme (in words) [4]	other results
CC(=O)N[C@H]1[C@H](O[C@H]2[C@@H](O)[C@@H](CO)O[C@@H](O[C@H]3[C@H](O)[C@@H](O)C(O)O[C@@H]3CO)[C@@H]2O)O[C@H](CO)[C@@H](O[C@@H]2O[C@H](CO)[C@H](O)[C@H](O)[C@H]2O)[C@@H]1O (some centres unmarked) [Galβ1,4GlcNAcβ1,3Galβ1,4Glc (LNnT), Galβ1,4GlcNAcβ1,3Galβ1,4Glc]	0	4		Relative rate (%) ST3N ([2]; acceptor 2.0 mM): 18%; Relative activity (%) Rat [3]: 4%
CC(=O)N[C@H]1C(O)O[C@H](CO)[C@H](O)[C@@H]1O[C@@H]1O[C@H](CO)[C@H](O)[C@H](O)[C@H]1O (some centres unmarked) [Galβ1,3GalNAc]	100	3		Relative rate (%) ST3N ([2]; acceptor 2.0 mM): 10%
Galβ1,4GlcNAcβ1,3Galβ1,4Glcβ1-Cer [Galβ1,4GlcNAcβ1,3Galβ1,4Glcβ1-Cer (nLc4)]			also serving as substrates, but to a lesser extent	
Asialofetuin: glycoprotein acceptor (Galβ1,3GalNAc-Thr/Ser and Galβ1,4GlcNAc-R)	26	18	sialic acid was incorporated; also recorded: best acceptor	
NeuAcα2,3Galβ1,4Glcβ1-Cer [NeuAcα2,3Galβ1,4Glcβ1-Cer (GM3)]	0.1	0		
intact fetuin: glycoprotein examined as acceptor			not any significant amount of sialic acid incorporated	
GalNAcβ1,4(NeuAcα2-3)Galβ1,4Glcβ1-Cer	0.3	0		Relative rate (%) ST3 [4]: 1%
CC(=O)N[C@H]1[C@H](O[C@H]2[C@@H](O)[C@@H](CO)O[C@@H](O[C@H]3[C@H](O)[C@@H](O)C(O)O[C@@H]3CO)[C@@H]2O)O[C@H](CO)[C@@H](O)[C@@H]1O[C@@H]1O[C@H](CO)[C@H](O)[C@H](O)[C@H]1O (some centres unmarked) [Galβ1,3GlcNAcβ1,3Galβ1,4Glc (LNT), Galβ1,3GlcNAcβ1,3Galβ1,4Glc]	0.5	100		Relative rate (%) ST3N ([2]; acceptor 2.0 mM): 100%; Relative activity (%) Rat [3]: 100%
Galβ1,3GalNAcβ1,4Galβ1,4Glcβ1-Cer	88	8	preferred one	Relative rate (%) ST3 [4]: 64%; acceptor substrate for ST30 enzyme (in words) [1]: well
Galβ1,4Glcβ1-Cer [Galβ1,4Glcβ1-Cer (LacCer)]	0.1	0	low but significant level incorporation	
CC(=O)N[C@H]1[C@H](O[C@H]2[C@@H](O)[C@@H](CO)O[C@@H](O[C@H]3[C@H](O)[C@@H](O)C(O)O[C@@H]3CO)[C@@H]2O)O[C@H](CO)[C@@H](O[C@@H]2O[C@H](CO)[C@H](O)[C@H](O)[C@H]2O)[C@@H]1O[C@@H]1O[C@@H](C)[C@@H](O)[C@@H](O)[C@@H]1O (some centres unmarked) [Galβ1,4(Fucα1,3)GlcNAcβ1,3Galβ1,4Glc]	0	0		Relative rate (%) ST3N ([2]; acceptor 2.0 mM): 0%
CC(=O)N[C@H]1[C@H](O[C@H]2[C@@H](O)[C@@H](CO)O[C@@H](O[C@H]3[C@H](O)[C@@H](O)C(O)O[C@@H]3CO)[C@@H]2O)O[C@H](CO)[C@@H](O[C@@H]2O[C@@H](C)[C@@H](O)[C@@H](O)[C@@H]2O)[C@@H]1O[C@@H]1O[C@H](CO)[C@H](O)[C@H](O)[C@H]1O (some centres unmarked) [Galβ1,3(Fucα1,4)GlcNAcβ1,3Galβ1,4Glc]	0	0		Relative rate (%) ST3N ([2]; acceptor 2.0 mM): 0%
Galβ1,3GalNAcβ1,4(NeuAcα2-3)Galβ1,4Glcβ1-Cer	47	0	also serving as substrates, but to a lesser extent	acceptor substrate for ST30 enzyme (in words) [1]: well
GalNAcβ1,4Galβ1,4Glcβ1-Cer [GalNAcβ1,4Galβ1,4Glcβ1-Cer (Asialo-GM2)]	0.5	0		
α1 -acid glycoprotein: intact glycoprotein examined as acceptor			not any significant amount of sialic acid incorporated	
porcine Galβ1,3GalNAc α2,3 sialyltransferase (protein) NYSHTVVTTAWFPKQMVIELSENFKKLMKYPYRPCTCTRCIEEQRVSAWFDERFNRSMQPLLTAKNAHLEEDTYKWWLRLQREKQPNNLNDTIRELFQVVPGNVDPLLEKRLVSCRRCAVVGNSGNLKESYYGPQIDSHDFVLRMNKAPTEGFEADVGSKTTHHFVYPESFRELAQEVSMILVPFKTTDLEWVISATTTGTISHTYVPVPAKIKVKKEKILIYHPAFIKYVFDRWLQGHGRYPSTGILSVIFSLHICDEVDLYGFGADSKGNWHHYWENNPSAGAFRKTGVHDGDFESNVTTILASINKIRIFKGR				specific activity [5]: 8-10 units/mg protein
Form A: 48 kDa molecular weight form of the porcine liver α2,3 sialyltransferase (protein) TLKLLTLLVLFIFLTSFFLNYSHTVVTTAWFPKQMVIELSENFKKLMKYPYRPCTCTRCIEEQRVSAWFDERFNRSMQPLLTAKNAHLEEDTYKWWLRLQREKQPNNLNDTIRELFQVVPGNVDPLLEKRLVSCRRCAVVGNSGNLKESYYGPQIDSHDFVLRMNKAPTEGFEADVGSKTTHHFVYPESFRELAQEVSMILVPFKTTDLEWVISATTTGTISHTYVPVPAKIKVKKEKILIYHPAFIKYVFDRWLQGHGRYPSTGILSVIFSLHICDEVDLYGFGADSKGNWHHYWENNPSAGAFRKTGVHDGDFESNVTTILASINKIRIFKGR				specific activity [5]: 8-10 units/mg protein
